Holding throughout (experiment): Trypan blue staining apoptosis assay
Common to all, as to assay type: cell-based

Assay [1] concerns RKO human colon cancer cell line. The note with it: RKO (p53 WT/LIG4 MT); 25 μM and 50 μM, 48 hours. From the text:
(§1) In order to analyze the degree of apoptosis of Compound A, which is a novel PARP/Tankyrase simultaneous inhibitor according to a p53 genotype and LIG4 genotype, the present inventors treated a novel PARP/Tankyrase simultaneous inhibitor, Compound A, and a competitive drug PARP inhibitor, olaparib, in RKO, LoVo human colon cancer cell line in which the p53 gene is a normal type and the LIG4 gene is a mutant type and an SW620 human colon cancer cell line in which the p53 gene is a mutant type and the LIG4 gene is a normal type. The number of cells was measured by trypan blue staining assay to confirm the degree of apoptosis. The conditions and methods of the experiment were as follows: RKO, LoVo human colon cancer cell line in which the p53 gene is a normal type and the LIG4 gene is a mutant type and the SW620 human colon cancer cell line in which the p53 gene is a mutant type and the LIG4 gene is a normal type were cultured in RPMI1640 (10% FBS, 1% penicillin/streptomycin) and cultured in a 60 mm plate at 1×10^5 per well for 24 hours at 37° C. Compound A, which is a novel PARP/Tankyrase simultaneous inhibitor, and olaparib, which is a competitive drug PARP inhibitor, were treated with each of 25 μM and 50 μM and were cultured for 48 hours. The number of cells was measured by trypan blue staining assay to confirm the degree of apoptosis.
In order to analyze the degree of apoptosis of Compound A, which is a novel PARP/Tankyrase simultaneous inhibitor, according to the p53 genotype and an LIG4 genotype, the present inventors treated Compounds A and B, which are novel PARP/Tankyrase simultaneous inhibitors, in the RKO and LoVo human colon cancer cell lines in which the p53 gene is a normal type and an LIG4 gene is a mutant type. Then, the number of cells was measured by trypan blue staining assay to confirm the degree of apoptosis. The RKO and LoVo human colon cancer cell lines were cultured under the same conditions as in Example 5. Compounds A and B, which are novel PARP/Tankyrase simultaneous inhibitors, were treated with 25 μM and 50 μM, respectively, for 48 hours. After 48 hours of culturing, the number of cells was measured by trypan blue staining assay to confirm the degree of apoptosis. […]

The test system of assay [2] is SW620 human colon cancer cell line. The note with it: SW620 (p53 MT/LIG4 WT); 25 μM and 50 μM, 48 hours.
From the text: as §1
(§2) In order to analyze the degree of apoptosis of Compounds A and B, which are novel PARP/Tankyrase simultaneous inhibitors, in a cell line RKO in which the p53 genotype is a normal type and an LIG4 genotype is a mutant type, a cell line SW620 in which the p53 genotype is a mutant type and an LIG4 genotype is a normal type, a cell line HCT8 in which the p53 genotype and an LIG4 genotype are normal, and a cell line KM12C in which the p53 genotype and an LIG4 genotype are mutant, the human colon cancer cell lines of RKO, HCT, SW620 and KM12C with different p53 genotype and LIG4 genotype were cultured in RPMI1640 (10% FBS, 1% penicillin/streptomycin) and cultured in a 60 mm plate at 1×10^5 per well for 24 hours at 37° C. Compounds A and B, which are novel PARP/Tankyrase simultaneous inhibitors, and olaparib, which is a competitive drug PARP inhibitor, and NVP-TNKS656, which is a Tankyrase inhibitor, were treated with each of 25 μM and 50 μM. After 48 hours of culturing, the number of cells was measured by trypan blue staining assay to confirm the degree of apoptosis.

Assay [3] has as its system HCT8 human colon cancer cell line. The following applies: HCT8 (p53 WT/LIG4 WT); 25 μM and 50 μM, 48 hours.
From the text: as §2

In assay [4] the test system is KM12C human colon cancer cell line. The note with it: KM12C (p53 MT/LIG4 MT); 25 μM and 50 μM, 48 hours.
From the text: as §2

The text below walks through data of US10683553B2, “Method for determining sensitivity to simultaneous inhibitor against PARP and Tankyrase” (THE ASAN FOUNDATION, priority 2015, dated 2020).

Each structure is given as a SMILES string.

With `COc1ccc(C(=O)C2CCN(CC(=O)N(Cc3nc4c(c(=O)[nH]3)COCC4)CC3CC3)CC2)cc1` [NVP-TNKS656, reference compound], the “degree of apoptosis (trypan blue cell count)” value in assay [1] was “no change in apoptosis”; in assay [2], “No apoptosis occurred”; in assay [3], “No apoptosis occurred”; in assay [4], “No apoptosis occurred”.
